{
  "source": "patent US10209240B2",
  "about": "“Predicting human developmental toxicity of pharmaceuticals using human stem-like cells and metabolomic ratios” (STEMINA BIOMARKER DISCOVERY, INC., priority 2012, dated 2019)",
  "key": {"WA09 hES cells [1]": {"system": "WA09 hES cells", "experiment": "Phase 2 targeted biomarker assay, ornithine/cystine ratio, 9-point dose response", "settings": "for Teratogenicity Potential (μM) O/C Ratio: human, 72 h", "how_it_was_run": "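WA09 hES cells (≤ passage 40), plated as single cells at 100,000/well on Matrigel in mTeSR1 with 10 μM Y27632, dosed 24 h later with nine 3-fold dilutions, 0.04–300 μM, 0.1% DMSO, for 72 h. Final-24 h spent medium, spiked with 13C6-arginine and filtered (<10 kDa), analysed by LC-HRMS; viability by CellTiter-Fluor.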"}, "WA09 hES cells [2]": {"system": "WA09 hES cells", "settings": "for Teratogenicity Potential (μM) Cell Viability: human, 72 h"}, "rat": {"system": "rat", "settings": "cited from earlier work"}, "[3]": {"settings": "summarized from TERIS and Briggs et al. 2011, cited from earlier work"}, "Rabbit": {"system": "Rabbit", "settings": "training and test set; cited from earlier work"}, "Rodent": {"system": "Rodent", "settings": "training and test set; cited from earlier work"}, "Humans": {"system": "Humans", "settings": "cited from earlier work; for Humans (known human developmental toxicity): training and test set"}, "[4]": {"settings": "therapeutic peak plasma in vivo concentration, human, cited from earlier work"}, "zebrafish": {"system": "zebrafish", "settings": "training and test set; weak/moderate and strong teratogens both labeled teratogen; cited from earlier work"}, "[5]": {"system": "mouse embryonic stem cell", "settings": "training and test set; weak/moderate and strong teratogens both labeled teratogen; cited from earlier work"}, "hES cells [6]": {"system": "hES cells", "experiment": "ADMA/cystine ratio simplified predictive model in hES cell spent media", "assay_type": "cell-based, human", "settings": "single dose per treatment; ratios less than 0.9 indicate teratogenicity", "how_it_was_run": "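hES cell spent media were analysed for ADMA and cystine, each normalized to the DMSO reference, and their ratio formed. Each value is the median of independent blocks (6 reps each). A ratio cutoff of 0.9 classifies teratogens versus non-teratogens.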"}, "hES cells [7]": {"system": "hES cells", "experiment": "devTOX computational model predictions (Version 2.0, Version 2.1) from hES cell metabolomics", "assay_type": "cell-based, human", "settings": "single dose per treatment (Dose column)", "source_text": "The selection process weighted the predictive capacity of a feature, overall intensity, and peak shape to identify very well behaved features/metabolites that could be measured by targeted LC-MS or even by other detection systems.\nThis simplified model is based on a ratio of the reference treatment (DMSO) normalized values of ADMA and cystine."}, "[8]": {"experiment": "Solubility in DMSO for stock solutions", "settings": "at the stock concentrations used in this study", "procedure": "Phase I hES Cell Compound Exposure. hES cells were treated with a test compound at a single concentration equivalent to the compound's published therapeutic Cmax. […] This was done to ensure that enough cells were present at the time of sample collection to provide a signal for LC-HRMS analysis. For test compound exposure, all compound stock solutions, with the exception of valproic acid, were made with DMSO (Sigma-Aldrich). […] Each 96-well plate included media controls with and without test compound, 0.1% DMSO solvent control cells and cells exposed to a single concentration of eight different test compounds (FIG. 1A). Media controls were included on each plate to assess the impact of test compound on the sample matrix. hES cells were exposed to the test compound for 72 hours, with media and test compound replacement every 24 hours. Cells were monitored throughout the treatment period to ensure that no differentiation was occurring. After 72 hours of treatment, the spent media from the final 24-hour treatment period was collected and added to acetonitrile (Sigma-Aldrich, final acetonitrile concentration 40%), to halt metabolic processes and precipitate proteins from solution. Individual wells from each 96-well plate were collected and analyzed as separate samples. These samples were then stored at −80° C. until prepared for LC-HRMS analysis. Cell viability was assessed using the CellTiter-Fluor Cell Viability Assay as per the manufacturer's instructions (Promega, Madison, Wis.). […]\nPhase 2 hES Cell Compound Exposure. […] Cell viability was assessed using the CellTiter-Fluor Cell Viability Assay. A quality control step was included with criteria that the CV of the measured viability RFU of the DMSO control cells could not exceed 10% for a plate to undergo LC-HRMS analysis. […]"}, "rat whole embryo": {"system": "rat whole embryo", "settings": "training and test set; weak/moderate and strong teratogens both labeled teratogen; cited from earlier work"}},
  "note": "Read-outs that look alike come from different tables or passages of the source.",
  "data": [
    {"smiles": "CS(=O)(=O)CCNCc1ccc(-c2ccc3ncnc(Nc4ccc(OCc5cccc(F)c5)c(Cl)c4)c3c2)o1", "note": "[Lapatinib]", "values": [
      {"measurement": "O/C Ratio Prediction", "setting": "WA09 hES cells [1]", "result": "NON"},
      {"measurement": "Targeted Biomarker Assay prediction", "setting": "WA09 hES cells [1]", "result": "NON"},
      {"measurement": "Teratogenicity Potential (μM) O/C Ratio", "setting": "WA09 hES cells [1]", "result": 29, "unit": "µM"},
      {"measurement": "Viability Prediction", "setting": "WA09 hES cells [2]", "result": "NON"},
      {"measurement": "Teratogenicity Potential (μM) Cell Viability", "setting": "WA09 hES cells [2]", "result": 20.8, "unit": "µM"},
      {"measurement": "Exposure level causing rat pup mortality relative to human clinical exposure based on AUC", "setting": "rat; given during organogenesis, Briggs et al. 2011", "result": "about 3.3 times"},
      {"measurement": "Preclinical in vivo and known human developmental effects", "setting": "[3]; test set compounds", "result": "Skeletal, embryo toxicity^c"},
      {"measurement": "Rabbit prediction", "setting": "Rabbit", "result": "TER"},
      {"measurement": "Rodent prediction", "setting": "Rodent", "result": "TER"},
      {"measurement": "Humans (known human developmental toxicity)", "setting": "Humans", "result": "TER"},
      {"measurement": "Cmax", "setting": "[4]; test set", "result": 4.2, "unit": "µM"}
    ]},
    {"smiles": "CC[C@H](C)C(=O)O[C@H]1C[C@@H](C)C=C2C=C[C@H](C)[C@H](CC[C@@H]3C[C@@H](O)CC(=O)O3)[C@H]21", "note": "[Lovastatin]", "values": [
      {"measurement": "O/C Ratio Prediction", "setting": "WA09 hES cells [1]", "result": "NON"},
      {"measurement": "Targeted Biomarker Assay prediction", "setting": "WA09 hES cells [1]", "result": "NON"},
      {"measurement": "Teratogenicity Potential (μM) O/C Ratio", "setting": "WA09 hES cells [1]", "result": 1.3, "unit": "µM"},
      {"measurement": "Viability Prediction", "setting": "WA09 hES cells [2]", "result": "NON"},
      {"measurement": "Teratogenicity Potential (μM) Cell Viability", "setting": "WA09 hES cells [2]", "result": 4.1, "unit": "µM"},
      {"measurement": "Cmax", "setting": "rat; in vivo, 100 mg/kg/day", "result": "~1.5", "unit": "µM"},
      {"measurement": "lowest observed adverse effect level (LOAEL)", "setting": "rat; in vivo", "result": 100, "unit": "mg/kg body weight per day"},
      {"measurement": "ZET prediction", "setting": "zebrafish", "result": "TER^d"},
      {"measurement": "Preclinical in vivo and known human developmental effects", "setting": "[3]; test set compounds", "result": "Skeletal, embryo toxicity^c"},
      {"measurement": "Rabbit prediction", "setting": "Rabbit", "result": "NON"},
      {"measurement": "Rodent prediction", "setting": "Rodent", "result": "TER"},
      {"measurement": "mEST prediction", "setting": "[5]", "result": "TER^m"},
      {"measurement": "Humans (known human developmental toxicity)", "setting": "Humans", "result": "TER"},
      {"measurement": "Cmax", "setting": "[4]; test set", "result": 0.02, "unit": "µM"}
    ]},
    {"smiles": "CCCC(CCC)C(=O)O", "note": "[Valproic Acid]", "values": [
      {"measurement": "Change in the o/c ratio, also relative to cytotoxicity", "setting": "WA09 hES cells [1]", "result": "marked change in the o/c ratio at exposure levels well before cytotoxicity is observed"},
      {"measurement": "O/C Ratio Prediction", "setting": "WA09 hES cells [1]", "result": "TER"},
      {"measurement": "Targeted Biomarker Assay prediction", "setting": "WA09 hES cells [1]", "result": "TER"},
      {"measurement": "Teratogenicity Potential (μM) O/C Ratio", "setting": "WA09 hES cells [1]", "result": 90.8, "unit": "µM"},
      {"measurement": "Model Predictions ADMA/Cystine", "setting": "hES cells [6]", "result": "Ter"},
      {"measurement": "Model Predictions Version 2.0", "setting": "hES cells [7]", "result": "Ter"},
      {"measurement": "Model Predictions Version 2.1", "setting": "hES cells [7]", "result": "Ter"},
      {"measurement": "Viability Prediction", "setting": "WA09 hES cells [2]", "result": "NON"},
      {"measurement": "Teratogenicity Potential (μM) Cell Viability", "setting": "WA09 hES cells [2]", "result": 1113.7, "unit": "µM"},
      {"measurement": "Solubility in DMSO (words)", "setting": "[8]; listed as Valproic acid", "result": "insoluble in DMSO"},
      {"measurement": "Solubility in DMSO (words)", "setting": "[8]; listed as valproic acid", "result": "completely insoluble in DMSO"},
      {"measurement": "ZET prediction", "setting": "zebrafish", "result": "TER^e,n"},
      {"measurement": "Preclinical in vivo and known human developmental effects", "setting": "[3]; training set compounds", "result": "Central nervous system,"},
      {"measurement": "Rabbit prediction", "setting": "Rabbit", "result": "TER^u"},
      {"measurement": "Rodent prediction", "setting": "Rodent", "result": "TER"},
      {"measurement": "mEST prediction", "setting": "[5]", "result": "TER^b,i"},
      {"measurement": "WEC prediction", "setting": "rat whole embryo", "result": "TER^f,j"},
      {"measurement": "Humans (known human developmental toxicity)", "setting": "Humans", "result": "TER"},
      {"measurement": "Known Effect", "setting": "Humans; validation and test set treatments of Example 2", "result": "Ter"},
      {"measurement": "Cmax", "setting": "[4]; training set", "result": 1000, "unit": "µM"}
    ]}
  ]
}
